Results reported in ChEMBL document CHEMBL5523739, “NN1213 - A Potent, Long-Acting, and Selective Analog of Human Amylin” (J Med Chem, 2024).
Converted amounts (≈) assume the structure as drawn. The source made the active and inactive calls. No cut-off for these calls is given here.

What was measured:
Canis familiaris [1] = assay: Appetite suppressing activity in dog assessed as reduction in food intake administered subcutaneously measured for 48 hrs; format: functional, organism-based; conditions: Canis lupus familiaris, dose 3-300 nmol/kg, route sc
Rattus norvegicus [2] = assay: Effect on lean mass of HFD-fed DIO rat model at 0.7 to 22 nmol/kg, sc qd measured after 21 days; format: functional, organism-based; conditions: dose 0.7-22 nmol/kg, time 21.0 day
Calcitonin receptor [3] = biological target: T1, Calcitonin receptor (Homo sapiens, UniProt P30988); assay: Agonist activity at human CTR transduced in human HeLa cells by cAMP assay; format: functional, cell-based
T1 sequence (P30988 whole entry): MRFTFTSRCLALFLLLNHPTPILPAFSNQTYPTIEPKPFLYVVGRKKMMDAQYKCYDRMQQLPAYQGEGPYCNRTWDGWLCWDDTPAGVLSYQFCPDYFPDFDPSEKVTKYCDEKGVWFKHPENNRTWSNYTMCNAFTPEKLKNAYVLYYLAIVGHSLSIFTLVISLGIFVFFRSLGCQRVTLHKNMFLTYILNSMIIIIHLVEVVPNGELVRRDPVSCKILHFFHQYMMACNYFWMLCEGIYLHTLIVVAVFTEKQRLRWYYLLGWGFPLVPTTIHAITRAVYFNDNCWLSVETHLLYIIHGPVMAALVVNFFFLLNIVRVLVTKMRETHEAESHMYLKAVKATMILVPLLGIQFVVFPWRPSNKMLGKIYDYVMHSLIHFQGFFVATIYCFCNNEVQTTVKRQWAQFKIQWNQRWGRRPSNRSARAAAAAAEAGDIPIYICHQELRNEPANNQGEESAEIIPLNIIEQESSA

Calcitonin receptor [4] = biological target: T2, Calcitonin receptor (Rattus norvegicus, UniProt P32214); assay: Agonist activity at rat CTR expressed in Baby hamster kidney cells incubated for 3 hrs by cAMP assay; format: functional, cell-based, Baby hamster kidney cell
T2 sequence (P32214 whole entry): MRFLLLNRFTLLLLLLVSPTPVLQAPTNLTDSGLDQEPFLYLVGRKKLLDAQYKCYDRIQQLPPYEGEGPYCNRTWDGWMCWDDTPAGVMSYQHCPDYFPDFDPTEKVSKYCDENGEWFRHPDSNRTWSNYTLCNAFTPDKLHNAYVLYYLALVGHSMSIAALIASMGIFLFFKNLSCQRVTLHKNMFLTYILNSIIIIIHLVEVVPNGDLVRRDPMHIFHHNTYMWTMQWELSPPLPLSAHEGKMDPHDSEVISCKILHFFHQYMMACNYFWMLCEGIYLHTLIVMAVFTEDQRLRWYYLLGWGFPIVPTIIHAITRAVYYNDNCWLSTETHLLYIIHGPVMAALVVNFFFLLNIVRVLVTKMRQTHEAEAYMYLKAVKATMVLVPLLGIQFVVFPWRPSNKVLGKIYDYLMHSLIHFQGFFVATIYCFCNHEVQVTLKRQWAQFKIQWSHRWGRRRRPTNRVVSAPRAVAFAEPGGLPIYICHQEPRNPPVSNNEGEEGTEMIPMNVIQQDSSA

Rattus norvegicus [5] = assay: Appetite suppressing activity in rat assessed as reduction in food intake at 3 nmol/kg, sc measured after 48 hrs relative to control; format: functional; design: scale not given: the % may be the effect or the level left
[6] = Solubility of compound at pH 8 incubated overnight by UPLC analysis; format: physicochemical; conditions: buffer
Rattus norvegicus [7] = assay: Appetite suppressing activity in rat assessed as reduction in food intake at 30 nmol/kg, sc measured for 24 to 48 hrs relative to control; format: functional; design: scale not given: the % may be the effect or the level left; conditions: time 24-48 hrs
[8] = Terminal half life in Gottingen minipig at 4.8 nmol/kg, iv; format: ADME, Sus scrofa; conditions: pig, in vivo, read-out: beta t1/2 (converted)
Rattus norvegicus [9] = assay: Appetite suppressing activity in HFD-fed DIO rat model assessed as reduction in food intake at 0.7 to 22 nmol/kg, sc qd measured for 1 to 2 hrs; format: functional, organism-based; conditions: dose 0.7-22 nmol/kg, time 1-2 hrs
Rattus norvegicus [10] = assay: Appetite suppressing activity in HFD-fed DIO rat model assessed as reduction in food intake at 0.7 nmol/kg, sc qd measured for 21 days relative to control; format: functional; design: scale not given: the % may be the effect or the level left; conditions: time 21 day
[11] = Toxicity in dog assessed as vomiting at 3 to 300 nmol/kg, sc; design: species or system Canis lupus familiaris; conditions: in vivo, dose 3-300 nmol/kg
[12] = biological target: T3, Amylin receptor AMY3; CALCR/RAMP3 (Homo sapiens, UniProt O60896+P30988); assay: Displacement of 125I-rat amylin from human AMY3R complex of CTR/RAMP3 expressed in Baby hamster kidney cell membrane incubated for 120 mins by SPA method; format: cell membranes
T3 sequence (P30988 whole entry): T1 sequence (P30988 whole entry)
T3 sequence (O60896 whole entry): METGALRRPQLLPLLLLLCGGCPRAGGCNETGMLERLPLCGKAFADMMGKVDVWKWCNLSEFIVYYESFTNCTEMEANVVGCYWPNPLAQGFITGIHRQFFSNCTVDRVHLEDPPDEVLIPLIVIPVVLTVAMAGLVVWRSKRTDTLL

[13] = Solubility of compound at pH 6.5 incubated overnight by UPLC analysis; format: physicochemical; conditions: buffer
Canis familiaris [14] = assay: Appetite suppressing activity in dog assessed as reduction in food intake at 30 nmol/kg, sc measured upto 7 days; format: functional, organism-based; conditions: Canis lupus familiaris, time <= 7.0 day
[15] = biological target: T3, Amylin receptor AMY3; CALCR/RAMP3; assay: Agonist activity at human AMY3R complex of CTR/RAMP3 expressed in Baby hamster kidney cells incubated for 3 hrs followed by medium replacement without compound measured after 30 mins by luciferase reporter assay; format: functional, cell-based, Baby hamster kidney cell
[16] = biological target: T4, Amylin receptor AMY3; CALCR/RAMP3 (Rattus norvegicus, UniProt P32214+Q9JJ73); assay: Displacement of 125I-rat amylin from rat AMY3R complex of CTR/RAMP3 expressed in Baby hamster kidney cell membrane incubated for 120 mins by SPA method; format: cell membranes
T4 sequence (P32214 whole entry): T2 sequence (P32214 whole entry)
T4 sequence (Q9JJ73 whole entry): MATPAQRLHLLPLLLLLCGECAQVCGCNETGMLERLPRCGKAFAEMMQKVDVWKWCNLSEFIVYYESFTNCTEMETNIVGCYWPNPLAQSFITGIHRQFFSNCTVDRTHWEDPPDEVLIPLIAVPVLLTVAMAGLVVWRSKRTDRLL

Rattus norvegicus [17] = assay: Appetite suppressing activity in HFD-fed DIO rat model assessed as reduction in body weight administered subcutaneously once daily measured for 21 days; format: functional, organism-based; conditions: dose 0.7-22 nmol/kg, route sc, time 21.0 day
[18] = Solubility of compound at pH 5 incubated overnight by UPLC analysis; format: physicochemical; conditions: buffer
Rattus norvegicus [19] = assay: Appetite suppressing activity in rat assessed as reduction in food intake at 30 nmol/kg, sc measured upto 24 hrs relative to control; format: functional; design: scale not given: the % may be the effect or the level left
[20] = Stability against amyloid fibril formation at pH 7.5 assessed as compound recovery at 1 uM measured after 45 hrs by ThT assay; format: physicochemical; conditions: pH 7.5, 45 h
[21] = […] bioavailability in rat at 2.5 nmol/kg, sc; format: ADME, organism-based; conditions: in vivo
Canis familiaris [22] = assay: Appetite suppressing activity in dog assessed as reduction in food intake at 300 nmol/kg, sc measured for 48 hrs relative to control; format: functional, Canis lupus familiaris; design: scale not given: the % may be the effect or the level left
[23] = Terminal half life in rabbit at 2 nmol/kg, iv; format: ADME, Oryctolagus cuniculus; conditions: in vivo, read-out: beta t1/2 (converted)
[24] = Toxicity in dog assessed as sign of discomfort at 3 to 300 nmol/kg, sc; design: species or system Canis lupus familiaris; conditions: in vivo, dose 3-300 nmol/kg
Rattus norvegicus [25] = assay: Appetite suppressing activity in HFD-fed DIO rat model assessed as body weight lost at 0.7 nmol/kg, sc qd measured after 21 days; format: functional; conditions: time 21 day

Structure (SMILES): CC[C@H](C)[C@H](NC(=O)[C@H](C)NC(=O)CNC(=O)[C@H](Cc1ccccc1)NC(=O)[C@H](CC(N)=O)NC(=O)[C@@H]1CCCN1C(=O)[C@H](CO)NC(=O)[C@H](CO)NC(=O)[C@H](Cc1c[nH]cn1)NC(=O)[C@H](CCCNC(=N)N)NC(=O)[C@H](CC(C)C)NC(=O)[C@H](Cc1ccccc1)NC(=O)[C@H](CC(=O)O)NC(=O)[C@H](C)NC(=O)[C@H](CC(C)C)NC(=O)[C@H](CCCNC(=N)N)NC(=O)[C@H](CCC(N)=O)NC(=O)[C@@H](NC(=O)[C@H](C)NC(=O)[C@@H]1CSSC[C@H](NC(=O)[C@@H](N)CCCCN)C(=O)N[C@@H](CC(N)=O)C(=O)N[C@@H]([C@@H](C)O)C(=O)N[C@@H](C)C(=O)N[C@@H]([C@@H](C)O)C(=O)N1)[C@@H](C)O)C(=O)N1CCC[C@H]1C(=O)N[C@@H](CO)C(=O)N[C@@H](CO)C(=O)N[C@H](C(=O)N[C@@H](CC(N)=O)C(=O)N[C@H](C(=O)NCC(=O)N[C@@H](CO)C(=O)N[C@@H](CCCNC(=N)N)C(=O)N[C@H](C(=O)N[C@@H](Cc1ccc(O)cc1)C(N)=O)[C@@H](C)O)C(C)C)[C@@H](C)O
- Activity (Canis familiaris [1]): Dose-Dependent Effect
- Activity (Rattus norvegicus [2]): inactive
- EC50 (Calcitonin receptor [3]): 1740 pM
- EC50 (Calcitonin receptor [4]): 102000 pM
- Activity (Rattus norvegicus [5]): 15%
- solubility [6]: 110 µM (≈ 437 µg/mL)
- Activity (Rattus norvegicus [7]): 50%
- half-life [8]: ~115 h
- Activity (Rattus norvegicus [9]): Active
- Activity (Rattus norvegicus [10]): 4.7%
- Activity [11]: Non-Toxic
- IC50 [12]: 561 pM
- solubility [13]: ≥ 200 µM
- Activity (Canis familiaris [14]): Active
- EC50 [15]: 177 pM
- IC50 [16]: 290 pM
- Activity (Rattus norvegicus [17]): Dose-Dependent Effect
- solubility [18]: ≥ 200 µM
- Activity (Rattus norvegicus [19]): 70%
- Drug recovery [20]: 96%
- bioavailability [21]: ~40%
- Activity (Canis familiaris [22]): 90%
- half-life [23]: ~50 h
- Activity [24]: Non-Toxic
- Activity (Rattus norvegicus [25]): 32 g
